From US9572895B2, “Multiplexed supramolecular assemblies for non-viral delivery of genetic material” (The Board of Trustees of the University of Illinois, priority 2010, dated 2017) come the findings set out here.

The test deals with plasmid DNA. The test is described as follows: Gel retardation assay on plasmid DNA. The test is classed as binding. The following applies: various agent:DNA mass ratios, 1% agarose gel. On the procedure: A solution of DNA (1 μg/10 μL) was prepared in doubled distilled water. Appropriate amounts of spermine, DOS or oligoarginine dissolved in double distilled water were added to the DNA solution (10 μL) to achieve the desired spermine:DNA, DOS:DNA or Arg9:DNA weight ratio (FIGS. 6 and 7). Complexes were incubated at room temperature for 15 min, after which loading dye was added and the solution (10 μL) was run on a 1% agarose gel (70 V, 70 min). DNA was stained with ethidium bromide and visualized on a Gel Doc imaging system (Biorad, Herclues, Calif.).

As for “H-Arg-Arg-Arg-Arg-Arg-Arg-Arg-Arg-Arg-OH trifluoroacetate salt [Arg9]”, the “electrostatic interaction with plasmid DNA (gel retardation)” value is recorded as “confirming the electrostatic interaction”.
